Results: patent US20230085307A1, “PYRIDAZINONE COMPOUND AND HERBICIDE” (NISSAN CHEMICAL CORPORATION, priority 2019, published 2023)

Assays:
velvetleaf [1] = assay: Test Example 4: herbicidal effect by soil treatment (Table 19, symbol M); format: in vivo, velvetleaf (Abutilon theophrasti); settings: amount of applied herbicide 320 g/ha
In short: (§1)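 In this soil treatment, the formulated compound reached the seeds only through the soil: seeds were buried about 1.5 cm deep in sterilized diluvial soil, then the diluted emulsion was sprayed over the surface. After three weeks at 25° C. to 30° C. in a greenhouse, effects were graded on criteria from an earlier test.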

velvetleaf [2] = assay: Test Example 5: herbicidal effect by foliage application, plastic box (Table 20, symbol M); format: in vivo, velvetleaf (Abutilon theophrasti); settings: 320 g/ha; for M: velvetleaf, herbicidal effect grade: foliage application, three weeks after application
In short: (§2)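 Plants were sown into sterilized diluvial soil under about 1.5 cm cover and kept in a greenhouse at 25° C. to 30° C. Fourteen days on, foliage received an even spray of the diluted emulsion. Herbicidal or crop effect was judged three weeks afterwards.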

blackgrass = assay: Test Example 5: herbicidal effect by foliage application, plastic box (Table 20, symbol J); format: in vivo, blackgrass (Alopecurus myosuroides); settings: 320 g/ha; for J: blackgrass, herbicidal effect grade: foliage application, three weeks after application
In short: as §2

southern crabgrass [3] = assay: Test Example 4: herbicidal effect by soil treatment (Table 19, symbol F); format: in vivo, southern crabgrass (Digitaria ciliaris); settings: amount of applied herbicide 320 g/ha
In short: as §1

green foxtail [4] = assay: Test Example 5: herbicidal effect by foliage application, plastic box (Table 20, symbol G); format: in vivo, green foxtail (Setaria viridis); settings: 320 g/ha; for G: green foxtail, herbicidal effect grade: foliage application, three weeks after application
In short: as §2

persian speedwell = assay: Test Example 4: herbicidal effect by soil treatment (Table 19, symbol R); format: in vivo, Persian speedwell (Veronica persica); settings: amount of applied herbicide 320 g/ha
In short: as §1

windgrass [5] = assay: Test Example 4: herbicidal effect by soil treatment (Table 19, symbol L); format: in vivo, windgrass (Apera spica-venti); settings: amount of applied herbicide 320 g/ha
In short: as §1

southern crabgrass [6] = assay: Test Example 5: herbicidal effect by foliage application, plastic box (Table 20, symbol F); format: in vivo, southern crabgrass (Digitaria ciliaris); settings: 320 g/ha; for F: southern crabgrass, herbicidal effect grade: foliage application, three weeks after application
In short: as §2

wild oat = assay: Test Example 5: herbicidal effect by foliage application, plastic box (Table 20, symbol I); format: in vivo, wild oat (Avena fatua); settings: 320 g/ha; for I: wild oat, herbicidal effect grade: foliage application, three weeks after application
In short: as §2

barnyard grass [7] = assay: Test Example 5: herbicidal effect by foliage application, plastic box (Table 20, symbol H); format: in vivo, barnyard grass (Echinochloa crus-galli); settings: 320 g/ha; for H: barnyard grass, herbicidal effect grade: foliage application, three weeks after application
In short: as §2

rice flat sedge = assay: Test Example 3: herbicidal effect by foliage application, Wagner pot (Table 18, symbol E); format: in vivo, rice flat sedge (Cyperus iria); settings: 320 g/ha
In short: (§3)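 Plants were sown in alluvial soil held under 0.1–0.5 cm standing water and grown 14 days in a greenhouse at 25–30 °C. An emulsifiable formulation, water-diluted to the set dose, was then sprayed onto the foliage, and effects were scored three weeks later using previously defined criteria.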

redroot pigweed = assay: Test Example 5: herbicidal effect by foliage application, plastic box (Table 20, symbol N); format: in vivo, redroot pigweed (Amaranthus retroflexus); settings: 320 g/ha; for N: redroot pigweed, herbicidal effect grade: foliage application, three weeks after application
In short: as §2

green foxtail [8] = assay: Test Example 4: herbicidal effect by soil treatment (Table 19, symbol G); format: in vivo, green foxtail (Setaria viridis); settings: amount of applied herbicide 320 g/ha
In short: as §1

barnyard grass [9] = assay: Test Example 3: herbicidal effect by foliage application, Wagner pot (Table 18, symbol H); format: in vivo, barnyard grass (Echinochloa crus-galli); settings: 320 g/ha
In short: as §3

Italian ryegrass = assay: Test Example 4: herbicidal effect by soil treatment (Table 19, symbol K); format: in vivo, Italian ryegrass (Lolium multiflorum); settings: amount of applied herbicide 320 g/ha
In short: as §1

late watergrass = assay: Test Example 1: herbicidal activity, application before weed generation under submerged conditions (Table 16, symbol A); format: in vivo, late watergrass (Echinochloa oryzicola); settings: amount of applied herbicide 320 g/ha
In short: (§4)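 Emulsion formulation, water-diluted to set dose, was put onto the flooded surface (4 cm depth, alluvial soil) the same day weeds were sown and 2.5-leaf rice transplanted. After 3 weeks at 25-30 °C under glass, each species was rated 0 (≤5% kill) to 5 (≥90% kill).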

windgrass [10] = assay: Test Example 5: herbicidal effect by foliage application, plastic box (Table 20, symbol L); format: in vivo, windgrass (Apera spica-venti); settings: 320 g/ha; for L: windgrass, herbicidal effect grade: foliage application, three weeks after application
In short: as §2

Japanese bulrush = assay: Test Example 1: herbicidal activity, application before weed generation under submerged conditions (Table 16, symbol B); format: in vivo, Japanese bulrush (Schoenoplectus juncoides); settings: amount of applied herbicide 320 g/ha
In short: as §4

[11] = foliage application after 14-day growth, evaluated three weeks after application

Row | SMILES | M: velvetleaf, herbicidal effect grade (velvetleaf [1]) | M: velvetleaf, herbicidal effect grade (velvetleaf [2]) | J: blackgrass, herbicidal effect grade (blackgrass) | F: southern crabgrass, herbicidal effect grade (southern crabgrass [3]) | G: green foxtail, herbicidal effect grade (green foxtail [4]) | R: persian speedwell, herbicidal effect grade (persian speedwell) | L: windgrass, herbicidal effect grade (windgrass [5]) | F: southern crabgrass, herbicidal effect grade (southern crabgrass [6]) | I: wild oat, herbicidal effect grade (wild oat) | H: barnyard grass, herbicidal effect grade (barnyard grass [7]) | herbicidal effect on rice flat sedge (E) (rice flat sedge) | N: redroot pigweed, herbicidal effect grade (redroot pigweed) | G: green foxtail, herbicidal effect grade (green foxtail [8]) | herbicidal effect on barnyard grass (H) (barnyard grass [9]) | K: Italian ryegrass, herbicidal effect grade (Italian ryegrass) | Herbicidal effect, A: late watergrass (late watergrass) | L: windgrass, herbicidal effect grade (windgrass [10]) | Herbicidal effect, B: Japanese bulrush (Japanese bulrush) | also measured
1 | COc1ccccc1-c1sc2cc(OCc3ccccc3)ccc2c1-c1c(O)c(C)nn(C)c1=O [3-118] | 0 (Herbicidal rate of 5% or less (almost no effect)) | 2 (Herbicidal rate of 20% or more and less than 40%) | 4 (Herbicidal rate of 70% or more and less than 90%) | 0 (Herbicidal rate of 5% or less (almost no effect)) | 3 (Herbicidal rate of 40% or more and less than 70%) | 5 (Herbicidal rate of 90% or more (almost completely withered)) | 3 (Herbicidal rate of 40% or more and less than 70%) | 4 (Herbicidal rate of 70% or more and less than 90%) | 3 (Herbicidal rate of 40% or more and less than 70%) | 0 (Herbicidal rate of 5% or less (almost no effect)) | 5 (Herbicidal rate of 90% or more (almost completely withered)) | 5 (Herbicidal rate of 90% or more (almost completely withered)) | 0 (Herbicidal rate of 5% or less (almost no effect)) | 4 (Herbicidal rate of 70% or more and less than 90%) | 3 (Herbicidal rate of 40% or more and less than 70%) | 3 (Herbicidal rate of 40% or more and less than 70%) | 5 (Herbicidal rate of 90% or more (almost completely withered)) | 3 (Herbicidal rate of 40% or more and less than 70%) | 
2 | COCCOc1ccc2c(-c3c(O)c(C)nn(C)c3=O)c(-c3ccccc3OC)sc2c1 [3-121] | 5 (Herbicidal rate of 90% or more (almost completely withered)) | 5 (Herbicidal rate of 90% or more (almost completely withered)) | 5 (Herbicidal rate of 90% or more (almost completely withered)) | 5 (Herbicidal rate of 90% or more (almost completely withered)) | 5 (Herbicidal rate of 90% or more (almost completely withered)) | 5 (Herbicidal rate of 90% or more (almost completely withered)) | 5 (Herbicidal rate of 90% or more (almost completely withered)) | 5 (Herbicidal rate of 90% or more (almost completely withered)) | 5 (Herbicidal rate of 90% or more (almost completely withered)) | 5 (Herbicidal rate of 90% or more (almost completely withered)) | 5 (Herbicidal rate of 90% or more (almost completely withered)) | 5 (Herbicidal rate of 90% or more (almost completely withered)) | 5 (Herbicidal rate of 90% or more (almost completely withered)) | 5 (Herbicidal rate of 90% or more (almost completely withered)) | 5 (Herbicidal rate of 90% or more (almost completely withered)) | 5 (Herbicidal rate of 90% or more (almost completely withered)) | 5 (Herbicidal rate of 90% or more (almost completely withered)) | 5 (Herbicidal rate of 90% or more (almost completely withered)) | 
3 | COc1ccccc1-c1sc2cc(OCC3CC3)ccc2c1-c1c(O)c(C)nn(C)c1=O [3-129] | 0 (Herbicidal rate of 5% or less (almost no effect)) | 4 (Herbicidal rate of 70% or more and less than 90%) | 5 (Herbicidal rate of 90% or more (almost completely withered)) | 4 (Herbicidal rate of 70% or more and less than 90%) | 5 (Herbicidal rate of 90% or more (almost completely withered)) | 4 (Herbicidal rate of 70% or more and less than 90%) | 5 (Herbicidal rate of 90% or more (almost completely withered)) | 5 (Herbicidal rate of 90% or more (almost completely withered)) | 3 (Herbicidal rate of 40% or more and less than 70%) | 4 (Herbicidal rate of 70% or more and less than 90%) | 5 (Herbicidal rate of 90% or more (almost completely withered)) | 5 (Herbicidal rate of 90% or more (almost completely withered)) | 5 (Herbicidal rate of 90% or more (almost completely withered)) | 5 (Herbicidal rate of 90% or more (almost completely withered)) | 5 (Herbicidal rate of 90% or more (almost completely withered)) | 5 (Herbicidal rate of 90% or more (almost completely withered)) | 5 (Herbicidal rate of 90% or more (almost completely withered)) | 5 (Herbicidal rate of 90% or more (almost completely withered)) | 
4 | CCCC(=O)Oc1c(C)nn(C)c(=O)c1-c1c(-c2ccc(OC(F)(F)F)cc2)sc2cc(F)ccc12 [3-144] |  |  |  |  |  |  |  |  |  |  | 5 (Herbicidal rate of 90% or more (almost completely withered)) |  |  | 5 (Herbicidal rate of 90% or more (almost completely withered)) |  | 5 (Herbicidal rate of 90% or more (almost completely withered)) |  | 3 (Herbicidal rate of 40% or more and less than 70%) | Herbicidal effect by soil treatment, M: velvetleaf (velvetleaf [1]): 0 (Herbicidal rate of 5% or less (almost no effect)); herbicidal effect on M: velvetleaf (evaluation grade 0-5) (velvetleaf [2]; [11]): 4 (Herbicidal rate of 70% or more and less than 90%); herbicidal effect on J: blackgrass (evaluation grade 0-5) (blackgrass; [11]): 0 (Herbicidal rate of 5% or less (almost no effect)); Herbicidal effect by soil treatment, F: southern crabgrass (southern crabgrass [3]): 1 (Herbicidal rate of 5% or more and less than 20%); herbicidal effect on G: green foxtail (evaluation grade 0-5) (green foxtail [4]; [11]): 5 (Herbicidal rate of 90% or more (almost completely withered)); Herbicidal effect by soil treatment, R: persian speedwell (persian speedwell): 0 (Herbicidal rate of 5% or less (almost no effect)); Herbicidal effect by soil treatment, L: windgrass (windgrass [5]): 0 (Herbicidal rate of 5% or less (almost no effect)); herbicidal effect on F: southern crabgrass (evaluation grade 0-5) (southern crabgrass [6]; [11]): 1 (Herbicidal rate of 5% or more and less than 20%); herbicidal effect on I: wild oat (evaluation grade 0-5) (wild oat; [11]): 0 (Herbicidal rate of 5% or less (almost no effect)); herbicidal effect on H: barnyard grass (evaluation grade 0-5) (barnyard grass [7]; [11]): 4 (Herbicidal rate of 70% or more and less than 90%); herbicidal effect on N: redroot pigweed (evaluation grade 0-5) (redroot pigweed; [11]): 5 (Herbicidal rate of 90% or more (almost completely withered)); Herbicidal effect by soil treatment, G: green foxtail (green foxtail [8]): 0 (Herbicidal rate of 5% or less (almost no effect)); Herbicidal effect by soil treatment, K: Italian ryegrass (Italian ryegrass): 0 (Herbicidal rate of 5% or less (almost no effect)); herbicidal effect on L: windgrass (evaluation grade 0-5) (windgrass [10]; [11]): 0 (Herbicidal rate of 5% or less (almost no effect))
